In patent US11395847B2, “Acylated GLP-1/GLP-2 dual agonists” (Zealand Pharma A/S, priority 2016, dated 2022):
Like-named read-outs stand apart in the source and are kept apart here. Where a SMILES comes first, the peptide text is derived from it.

Legend:
[1] = tested on: Normal chow-fed C57BL/6J male mice; test: Effect on fasting glucose and intestinal weight in normal mice; format: in vivo; conditions: for Small intestinal wet weight: 100 nmol/kg s.c. once daily for 4 days, sacrificed 24 hours after final dosing; for Fasting blood glucose: 100 nmol/kg s.c., day 0 after a single injection, fasted mice
Method: Normal chow-fed C57BL/6J male mice were used. The mice were kept in standard housing conditions, light-, temperature-, and humidity-controlled room (12:12 h light-dark cycle, with lights on at 06.00-18.00 h; 20-22° C.; 50-80% relative humidity). Each dosing group consisted of 6 animals. Mice were dosed once daily with 100 nmol/kg with the test compounds or vehicle for 4 days via subcutaneous administration.
On day 0 mice were fasted and blood glucose levels measured after a single s.c. injection with peptides. Animals were sacrificed 24 hours after final dosing on day 3, and small intestinal wet weights were measured.

human GLP-1 receptor = target: T1, human GLP-1 receptor (Homo sapiens, UniProt P43220); test: GLP-1 receptor potency assay (cAMP ALPHASCREEN, HEK293 cells stably expressing GLP-1 R); format: cell-based; conditions: cAMP response, HEK293 cells expressing human GLP-1 R
T1 construct: expressed in transfected cells
T1 sequence (P43220 24-463): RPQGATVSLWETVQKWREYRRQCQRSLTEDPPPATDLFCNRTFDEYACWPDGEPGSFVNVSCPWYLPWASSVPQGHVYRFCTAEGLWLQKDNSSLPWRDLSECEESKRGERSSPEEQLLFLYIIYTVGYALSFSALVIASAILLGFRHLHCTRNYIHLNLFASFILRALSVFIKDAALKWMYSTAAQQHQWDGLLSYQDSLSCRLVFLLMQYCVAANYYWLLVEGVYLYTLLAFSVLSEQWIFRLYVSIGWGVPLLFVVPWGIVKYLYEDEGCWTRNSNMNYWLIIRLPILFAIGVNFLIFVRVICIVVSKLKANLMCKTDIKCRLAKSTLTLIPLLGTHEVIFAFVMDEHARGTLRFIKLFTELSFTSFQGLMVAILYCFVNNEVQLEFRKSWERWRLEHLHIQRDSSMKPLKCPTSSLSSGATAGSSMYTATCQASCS
Outline: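 Clonal HEK293 line stably transfected with human GLP-1R (G418-selected) was treated with test compounds and the cAMP response quantified by ALPHASCREEN. Signals were normalized to positive control and vehicle, with EC50 and maximal response taken from concentration-response curves.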

human GLP-2 receptor = target: T2, human GLP-2 receptor (Homo sapiens, UniProt O95838, D470N); test: GLP-2 receptor potency assay (cAMP ALPHASCREEN, HEK293 cells stably expressing GLP-2 R); format: cell-based; conditions: cAMP response, HEK293 cells expressing human GLP-2 R; read-out: EC50 GLP-2
T2 construct: expressed in transfected cells
T2 sequence (O95838 1-553 D470N): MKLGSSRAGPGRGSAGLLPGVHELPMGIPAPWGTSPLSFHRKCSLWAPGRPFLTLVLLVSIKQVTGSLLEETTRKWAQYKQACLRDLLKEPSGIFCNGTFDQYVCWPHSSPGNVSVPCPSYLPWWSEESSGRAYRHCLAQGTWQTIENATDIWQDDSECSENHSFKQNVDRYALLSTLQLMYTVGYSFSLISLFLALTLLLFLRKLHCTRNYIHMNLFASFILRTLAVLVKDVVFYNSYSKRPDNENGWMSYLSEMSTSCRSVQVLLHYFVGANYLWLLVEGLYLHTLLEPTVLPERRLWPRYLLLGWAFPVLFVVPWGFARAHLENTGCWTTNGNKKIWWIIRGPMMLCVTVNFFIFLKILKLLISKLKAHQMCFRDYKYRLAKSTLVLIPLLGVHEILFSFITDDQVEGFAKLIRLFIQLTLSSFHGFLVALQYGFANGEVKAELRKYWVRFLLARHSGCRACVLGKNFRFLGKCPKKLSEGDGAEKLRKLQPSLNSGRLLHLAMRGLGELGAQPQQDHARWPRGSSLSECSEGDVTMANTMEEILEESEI
Outline: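 HEK293 clones stably transfected with the human GLP-2 receptor, selected with G418, were used. Intracellular cAMP was quantified by AlphaScreen. Responses were normalised to positive and vehicle controls, and EC50 and maximal response were taken from concentration-response curves.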

[2] = Chemical stability (RP-HPLC normalized purity after incubation at 40° C.); format: physicochemical; conditions: 14-day incubation, 0.2 mg/ml, normalized purity (area-%); for pH 7 normalized stability: pH 7, 40° C.
Outline: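 Peptide at 0.2 mg/ml final in water adjusted to pH 6, 7, 7.5 or 9, incubated at 40° C for 14 days. Purity measured as main-peak area-% by C18 RP-HPLC (acetonitrile/TFA/water gradient, UV 220 nm) and normalized to T=0 set at 100 for each pH.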

[3] = Solubility assessment (turbidity absorbance at 325 nm); format: physicochemical
Outline: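 Peptide stock at 2 mg/ml in water at pH 2.5 diluted 1:1 into 100 mM acetate (pH 4.0, 5.0), histidine (pH 6.0, 7.0) or phosphate (pH 6.0, 7.0, 7.5) buffer. Absorbance at 280 and 325 nm read at ambient temperature (typically 25 °C), single samples (n=1).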

EC50 (human GLP-1 receptor)	EC50 (human GLP-2 receptor)	pH 7 normalized stability [2]	Compound	Small intestinal wet weight [1]	Fasting blood glucose [1]	other results
			CC[C@H](C)[C@H](NC(=O)[C@H](Cc1ccccc1)NC(=O)[C@H](CC(=O)O)NC(=O)[C@H](CCCNC(=N)N)NC(=O)[C@H](C)NC(=O)[C@H](C)NC(=O)[C@H](CCCCNC(=O)CC[C@H](NC(=O)CCCCCCCCCCCCCCCCC(=O)O)C(=O)O)NC(=O)CNC(=O)[C@H](CC(=O)O)NC(=O)[C@H](CC(C)C)NC(=O)[C@@H](NC(=O)[C@@H](NC(=O)[C@H](C)NC(=O)[C@H](CC(C)C)NC(=O)[C@H](CCC(=O)O)NC(=O)[C@H](CO)NC(=O)[C@@H](NC(=O)[C@H](Cc1ccccc1)NC(=O)[C@H](CO)NC(=O)CNC(=O)[C@H](CCC(=O)O)NC(=O)C(C)(C)NC(=O)[C@@H](N)Cc1c[nH]cn1)[C@@H](C)O)[C@@H](C)O)[C@@H](C)CC)C(=O)N[C@@H](C)C(=O)N[C@@H](Cc1c[nH]c2ccccc12)C(=O)N[C@@H](CC(C)C)C(=O)N[C@H](C(=O)N[C@@H](CCC(=O)O)C(=O)N[C@@H](Cc1c[nH]cn1)C(=O)N[C@@H](CCCCN)C(=O)N[C@H](C(=O)N[C@H](C(=O)N[C@@H](CC(=O)O)C(=O)O)[C@@H](C)O)[C@@H](C)CC)[C@@H](C)CC [Compound 8] (HELM PEPTIDE1{H.[Aib].E.G.S.F.T.S.E.L.A.T.I.L.D.G.K.A.A.R.D.F.I.A.W.L.I.E.H.K.I.T.D}|PEPTIDE2{[O=C(O)CCCCCCCCCCCCCCCCC(=O)[*:2]].[gGlu]}$PEPTIDE1,PEPTIDE2,17:R3-2:R2$$$V2.0)	1.27 g	5.28 mM	
310 pM	380 pM	A (>90% normalised stability)	CC[C@H](C)[C@H](NC(=O)[C@H](Cc1ccccc1)NC(=O)[C@H](CC(=O)O)NC(=O)[C@H](CCCNC(=N)N)NC(=O)[C@H](C)NC(=O)[C@H](C)NC(=O)[C@H](CCC(N)=O)NC(=O)[C@H](CCCCNC(=O)CC[C@H](NC(=O)CCCCCCCCCCCCCCCCC(=O)O)C(=O)O)NC(=O)[C@H](CC(=O)O)NC(=O)[C@H](CC(C)C)NC(=O)[C@@H](NC(=O)[C@@H](NC(=O)[C@H](C)NC(=O)[C@H](CC(C)C)NC(=O)[C@H](CCC(=O)O)NC(=O)[C@H](CO)NC(=O)[C@@H](NC(=O)[C@H](Cc1ccccc1)NC(=O)[C@H](CO)NC(=O)CNC(=O)[C@H](CCC(=O)O)NC(=O)C(C)(C)NC(=O)[C@@H](N)Cc1c[nH]cn1)[C@@H](C)O)[C@@H](C)O)[C@@H](C)CC)C(=O)N[C@@H](C)C(=O)N[C@@H](Cc1c[nH]c2ccccc12)C(=O)N[C@@H](CC(C)C)C(=O)N[C@H](C(=O)N[C@@H](CCCNC(=N)N)C(=O)N[C@@H](Cc1c[nH]cn1)C(=O)N[C@@H](CCCCN)C(=O)N[C@H](C(=O)N[C@H](C(=O)N[C@@H](CC(=O)O)C(=O)O)[C@@H](C)O)[C@@H](C)CC)[C@@H](C)CC [Compound 30] (HELM PEPTIDE1{H.[Aib].E.G.S.F.T.S.E.L.A.T.I.L.D.K.Q.A.A.R.D.F.I.A.W.L.I.R.H.K.I.T.D}|PEPTIDE2{[O=C(O)CCCCCCCCCCCCCCCCC(=O)[*:2]].[gGlu]}$PEPTIDE1,PEPTIDE2,16:R3-2:R2$$$V2.0)			
			CC[C@H](C)[C@H](NC(=O)[C@H](Cc1ccccc1)NC(=O)[C@H](CC(=O)O)NC(=O)[C@H](CCCNC(=N)N)NC(=O)[C@H](C)NC(=O)[C@H](C)NC(=O)[C@H](CCC(N)=O)NC(=O)[C@H](CCCCNC(=O)COCCOCCNC(=O)[C@H](CCCCN)NC(=O)[C@H](CCC(=O)O)NC(=O)[C@H](CCCCN)NC(=O)CC[C@H](NC(=O)CCCCCCCCCCCCCCCCCCC(=O)O)C(=O)O)NC(=O)[C@H](CC(=O)O)NC(=O)[C@H](CC(C)C)NC(=O)[C@@H](NC(=O)[C@@H](NC(=O)[C@H](C)NC(=O)[C@H](CC(C)C)NC(=O)[C@H](CCC(=O)O)NC(=O)[C@H](CO)NC(=O)[C@H](CO)NC(=O)[C@H](Cc1ccccc1)NC(=O)[C@@H](NC(=O)CNC(=O)[C@H](CCC(=O)O)NC(=O)C(C)(C)NC(=O)[C@@H](N)Cc1c[nH]cn1)[C@@H](C)O)[C@@H](C)O)[C@@H](C)CC)C(=O)N[C@@H](C)C(=O)N[C@@H](Cc1c[nH]c2ccccc12)C(=O)N[C@@H](CC(C)C)C(=O)N[C@H](C(=O)N[C@@H](CCC(N)=O)C(=O)N[C@@H](Cc1c[nH]cn1)C(=O)N[C@@H](CCCCN)C(=O)N[C@H](C(=O)N[C@H](C(=O)N[C@@H](CC(=O)O)C(=O)O)[C@@H](C)O)[C@@H](C)CC)[C@@H](C)CC [Compound 48] (HELM PEPTIDE1{H.[Aib].E.G.T.F.S.S.E.L.A.T.I.L.D.K.Q.A.A.R.D.F.I.A.W.L.I.Q.H.K.I.T.D}|PEPTIDE2{[O=C(O)CCCCCCCCCCCCCCCCCCC(=O)[*:2]].[gGlu].K.E.K.[O=C(COCCOCCN[*:1])[*:2]]}$PEPTIDE1,PEPTIDE2,16:R3-6:R2$$$V2.0)	1.41 g	5.08 mM	
130 pM	240 pM	B (>80% stability)	CC[C@H](C)[C@H](NC(=O)[C@H](CC(C)C)NC(=O)[C@H](Cc1c[nH]c2ccccc12)NC(=O)[C@H](C)NC(=O)[C@@H](NC(=O)[C@H](Cc1ccccc1)NC(=O)[C@H](CC(=O)O)NC(=O)[C@H](CCCNC(=N)N)NC(=O)[C@H](C)NC(=O)[C@H](C)NC(=O)[C@H](CCC(N)=O)NC(=O)[C@H](CCCCNC(=O)CC[C@H](NC(=O)CCCCCCCCCCCCCCCCC(=O)O)C(=O)O)NC(=O)[C@H](CC(=O)O)NC(=O)[C@H](CC(C)C)NC(=O)[C@@H](NC(=O)[C@@H](NC(=O)[C@H](C)NC(=O)[C@H](CC(C)C)NC(=O)[C@H](CCC(=O)O)NC(=O)[C@H](CO)NC(=O)[C@@H](NC(=O)[C@H](Cc1ccccc1)NC(=O)[C@@H](NC(=O)CNC(=O)[C@H](CCC(=O)O)NC(=O)C(C)(C)NC(=O)[C@@H](N)Cc1c[nH]cn1)[C@@H](C)O)[C@@H](C)O)[C@@H](C)O)[C@@H](C)CC)[C@@H](C)CC)C(=O)N[C@@H](C)C(=O)N[C@@H](Cc1c[nH]cn1)C(=O)N[C@@H](CCCCN)C(=O)N[C@H](C(=O)N[C@H](C(=O)N[C@@H](CC(=O)O)C(=O)O)[C@@H](C)O)[C@@H](C)CC [Compound 23] (HELM PEPTIDE1{H.[Aib].E.G.T.F.T.S.E.L.A.T.I.L.D.K.Q.A.A.R.D.F.I.A.W.L.I.A.H.K.I.T.D}|PEPTIDE2{[O=C(O)CCCCCCCCCCCCCCCCC(=O)[*:2]].[gGlu]}$PEPTIDE1,PEPTIDE2,16:R3-2:R2$$$V2.0)			solubility ([3]; 100 mM acetate buffer pH 4.0, ambient temperature, read-out: Solubility Acetate buffer pH 4): < 1000 µg/mL; solubility ([3]; 100 mM acetate buffer pH 5.0, ambient temperature, read-out: Solubility Acetate buffer pH 5): < 1000 µg/mL; solubility ([3]; 100 mM histidine buffer pH 6.0, ambient temperature, read-out: Solubility Histidine buffer pH 6): ≥ 1000 µg/mL; solubility ([3]; 100 mM histidine buffer pH 7.0, ambient temperature, read-out: Solubility Histidine buffer pH 7): ≥ 1000 µg/mL; solubility ([3]; 100 mM phosphate buffer pH 6.0, ambient temperature, read-out: Solubility Phosphate buffer pH 6): ≥ 1000 µg/mL; solubility ([3]; 100 mM phosphate buffer pH 7.0, ambient temperature, read-out: Solubility Phosphate buffer pH 7): ≥ 1000 µg/mL; solubility ([3]; 100 mM phosphate buffer pH 7.5, ambient temperature, read-out: Solubility Phosphate buffer pH 7.5): ≥ 1000 µg/mL; pH 6 normalized stability ([2]; pH 6, 40° C.): A (>90% normalised stability)
